{
  "source": "patent US20180318199A1",
  "about": "“Pharmaceutical Composition Having Anti-Aging Properties against High-Glucose” (TAIWAN LEADER BIOTECH CORP., priority 2017, published 2018)",
  "key": {"Nrf2": {"system": "Nrf2", "assay": "ARE luciferase reporter assay in HUVECs", "format": "cell-based, human", "details": "ANM 10 μM or RES 5 μM + HG 30 mM, 6 h; HG alone 0.5-fold, control 1-fold", "procedure": "Cell lysates are mixed with luciferase reagents and quantified using an illuminometer. Relative ARE promoter activity is calculated by dividing the relative luciferase unit (RLU) of treated cells by RLU of untreated cells (NG). Results are expressed as mean±SEM of three independent experiments. Statistical significance is set at ^ϕP<0.05 as compared to NG vs. HG and *P<0.05 as compared to HG vs. samples.\nARE promoter activity is measured using a dual-luciferase reporter assay system (Promega, Madison, Wis.). […] Cells are then transfected with ARE plasmid (Qiagen, Hilden, Germany) using Lipofectamine 2000 (Invitrogen) and incubated for 36 h. […] The cell lysate is prepared and incubated with luciferase agents and the relative luminescence intensity is quantified using a spectrophotometer (Hidex Oy, Turku, Finland)."}, "HNDFs (CCD966SK)": {"system": "HNDFs (CCD966SK)", "assay": "MTT cytotoxicity of antcins against HNDFs", "format": "cell-based, human", "details": "MTT, 72 h, up to 20 μM", "procedure": "Please refer to FIG. 2A˜FIG. 2D, which are views showing HG-induced senescence affected by antcins in HNDFs. As shown in the figures, prior to an investigation, cytotoxicity of antcins against HNDFs is determined. In FIG. 2A, type of antcins are subjected to screen for potential anti-aging agents for skin aging. Names and chemical structures of the antcins are shown in the left and center column, respectively. The cytotoxic effects of antcins against HNDFs are investigated. Briefly, HNDFs are incubated with increasing concentrations (1, 5, 10 and 20 μM) of antcins including ANA, ANB, ANC, ANH, ANK and ANM for 72 h and the cell viability is determined by MTT assay. The 50% inhibitory concentrations (IC50) of each compound against HNDFs are shown in right column.\nCell viability is assessed by MTT colorimetric assay. Briefly, HNDFs (2×10^4cells/well) or HUVECs (5×10^4 cells/well) are seeded in a 24-well culture plate. After treatment with HG (15 and 30 mM) in the presence or absence of samples for 24-72 h, culture media is withdrawn and incubated with MTT (1 mg/mL) in fresh medium for 2 h. The MTT formazan crystals are dissolved in 400 μL of DMSO and the samples are measured at 570 nm […] using an ELISA microplate reader (Bio-Tek Instruments, Winooski, Vt.). The percentage of cell viability (%) is calculated as (A570 of treated cells/A570 of untreated cells)×100."}, "HUVECs": {"system": "HUVECs", "assay": "SA-β-gal senescence assay in HUVECs", "format": "cell-based, human", "details": "ANM 10 μM + HG 30 mM, 48 h; HG alone 6.38-fold", "procedure": "Please refer to FIG. 9A˜FIG. 9H, which are views showing HG-induced senescence prevented by ANM in human umbilical vein endothelial cells (HUVECs). As shown in the figures, to further delineate the protective effects of ANM on another cell system, experiments are designed to investigate the protective effect of ANM on HUVECs incubated in media containing either NG or HG alone or with ANM for 48 h. Cell viability is measured by MTT assay. […] Cell viability is determined by MTT assay. Percentage of viable cells are normalized with control cells (NG). […] In addition, in FIG. 9B, cellular senescence is determined by SA-β-gal activity assay. […] In addition, in FIG. 9C and FIG. 9D, total cell lysate is extracted and senescence-associated marker proteins including p16^INK4A, p21^CIP1 total and acetylated p53 and FoxO1 are measured by western blot analysis.\nSenescence-associated β-galactosidase (SA-β-gal) activity is determined in formaldehyde-fixed histochemical staining kit according to the manufacturer's instructions (Cell Signaling Technology, Danvers, Calif.). Briefly, cells are grown in 6-well plates at a density of 5×10^4 cells/well, and incubated with HG or test samples for 48 h (HUVECs) or 72 h (HNDFs). […]"}, "wild-type C. elegans": {"system": "wild-type C. elegans", "assay": "C. elegans lifespan assay", "format": "in vivo, Caenorhabditis elegans", "procedure": "It has been well documented that high glucose levels decrease the life span of C. elegans by increasing ROS formation and advance glycation end-product modification of mitochondrial proteins. Therefore, it is further investigated whether ANM has a protective effect against hyperglycemia-induced oxidative stress as well as anti-aging effects. Worms are incubated with high glucose (50 mM) with or without ANM […], and controlled for life span evaluation. In FIG. 8B, effect of ANM on the life span of C. elegans under hyperglycemic condition is examined. Age synchronized L1 larvae are transfected to NGM plates which contain HG (50 mM) with or without ANM (10 μM) and worms are developed to adulthood. The survival rate is scored everyday and is expressed as a percentage of survival. […] Results are expressed as mean±S.E.M of three independent experiments. Statistical significance is set at ^ϕP<0.05 as compared to control vs. HG, *P<0.05 as compared to HG vs. HG+sample and ̂P<0.05 as compared to control vs. samples.\nControl worms are treated with 0.01% DMSO. All worms are kept 20° C. to develop adulthood. After 6 days, worms are transferred to plates containing glucose are applicable. Surviving and dead animals are counted daily (starting from the first day of adulthood) until all worms had died. […] Worms suffering from internal hatch (a defect in egg-laying) and those that crawled off the NGM plate are not included in the life-span assay. During the reproductive period, adult worms are transferred to fresh NGM plates every day during the progeny production period and then every other day thereafter. Life span assay result is obtained from three independent assays."}},
  "data": [
    {"smiles": "C=C(CCC(C)C1CCC2C3=C(C(=O)C(O)C21C)C1(C)CCC(O)C(C)C1CC3)C(C)C(=O)O", "note": "(centres unmarked) [ANM, antcin M]", "values": [
      {"measurement": "relative ARE luciferase activity in HUVECs co-incubated with HG", "setting": "Nrf2", "value": 4.8, "unit": "fold"},
      {"measurement": "cytotoxicity to HNDFs (in words)", "setting": "HNDFs (CCD966SK)", "value": "did not show significant cytotoxicity"},
      {"measurement": "SA-β-gal staining in HUVECs", "setting": "HUVECs", "value": 1.36, "unit": "fold"},
      {"measurement": "life span of C. elegans under normal condition", "setting": "wild-type C. elegans; ANM 10 μM or RES 438 μM vs control", "value": "significantly (P<0.026) prolongs"},
      {"measurement": "life span of C. elegans under hyperglycemic condition", "setting": "wild-type C. elegans; HG 50 mM with ANM 10 μM vs HG alone", "value": "significant (P<0.0001) increase"}
    ]}
  ]
}
